# Patent US20240092799A1, “MNK INHIBITORS” (Hepagene Therapeutics (HK) Limited, priority 2020, published 2024)
# pIC50: −log10 of the molar value. Counter-ions that a name gives are not always drawn.
# Key:
# [1] = molecular target: MNK1 (Homo sapiens (Human), UniProt Q9BUB5); assay: MNK Biochemical Enzymatic Assay (ADP-Glo), MNK1 binding assay
# Description: MNK Biochemical Enzymatic Assay. This protocol establishes the binding assays for MNK1 and MNK2 using ADP-Glo assay. MNK phosphorylates the substrate and converts ATP to ADP, which was detected by Envision and used to reflect the reminding activity of MNK. Reagents and equipment used in the assay are listed below, followed by the protocol.
# • a) Add 50 μL compound to 384-well dilution plate • b) Dilute compound 1:3 in succession in DMSO for each column for 10+0 pts (refer to dilution plate map) • c) Transfer 0.1 μL diluted compound solution in each row to 384 assay plate using Echo, each column containing 2 replicates (refer to assay plate map) • d) Add 5 μL enzyme working solution to 384-well assay plate, centrifuge 1000 RPM for 1 min • e) Incubate at 25° C. for 15 min • f) Add 5 μL substrate working solution to initiate reaction • g) Incubate at 25° C. for 60 min • h) Add 10 μL ADP Glo reagent, centrifuge 1000 RPM for 1 min • i) Incubate at 25° C. for 60 min • j) Add 20 μL kinase detection reagent, centrifuge 1000 RPM for 1 min • k) Incubate at 25° C. for 60 min • l) Read on Envision for US LUM as RLU • m) Data analysis: IC50s were determined based on a non-linear regression analysis of data collected.
# [2] = molecular target: MNK2 (Homo sapiens (Human), UniProt Q9HBH9); assay: MNK Biochemical Enzymatic Assay (ADP-Glo), MNK2 binding assay
# In short: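 Human MNK1 or MNK2 was preincubated with a 10-point, 1:3 serial dilution of compound for 15 min at 25 °C. Substrate was then added and the reaction ran 60 min at 25 °C. ADP formed was read by ADP-Glo luminescence, and IC50 came from non-linear regression.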
# [3] = tested on: TMD-8 cell p-IF4E; assay: p-eIF4E Signaling Cellular Assay (CisBio HTRF) in TMD-8 cells; format: cell-based; details: Homo sapiens, TMD8, 40 min, 40 min treatment
# In short: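 TMD-8 cells (20 k/well, exponential phase, RPMI 1640 + 10% FBS) treated with compound for 40 min at 37 °C, then lysed for 30 min and incubated overnight at RT with HTRF antibodies. 665/620 nm ratio converted to % inhibition vs controls; IC50 from variable-slope nonlinear fit.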
# Chain of MNK1 (Q9BUB5 other isoform, or with tags, fused parts or gaps isoform Q9BUB5-2): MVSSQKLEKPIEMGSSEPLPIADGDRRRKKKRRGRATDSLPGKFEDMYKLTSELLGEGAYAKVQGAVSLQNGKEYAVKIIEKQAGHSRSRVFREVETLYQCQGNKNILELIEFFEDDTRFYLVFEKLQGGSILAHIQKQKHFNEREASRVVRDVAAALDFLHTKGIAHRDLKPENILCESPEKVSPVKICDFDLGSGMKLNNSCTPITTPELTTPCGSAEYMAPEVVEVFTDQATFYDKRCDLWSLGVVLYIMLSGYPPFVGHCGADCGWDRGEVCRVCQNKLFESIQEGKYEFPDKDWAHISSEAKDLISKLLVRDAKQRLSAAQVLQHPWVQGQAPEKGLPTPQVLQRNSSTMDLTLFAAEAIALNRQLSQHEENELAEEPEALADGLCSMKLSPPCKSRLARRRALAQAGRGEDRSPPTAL
# Chain of MNK2 (Q9HBH9 whole entry): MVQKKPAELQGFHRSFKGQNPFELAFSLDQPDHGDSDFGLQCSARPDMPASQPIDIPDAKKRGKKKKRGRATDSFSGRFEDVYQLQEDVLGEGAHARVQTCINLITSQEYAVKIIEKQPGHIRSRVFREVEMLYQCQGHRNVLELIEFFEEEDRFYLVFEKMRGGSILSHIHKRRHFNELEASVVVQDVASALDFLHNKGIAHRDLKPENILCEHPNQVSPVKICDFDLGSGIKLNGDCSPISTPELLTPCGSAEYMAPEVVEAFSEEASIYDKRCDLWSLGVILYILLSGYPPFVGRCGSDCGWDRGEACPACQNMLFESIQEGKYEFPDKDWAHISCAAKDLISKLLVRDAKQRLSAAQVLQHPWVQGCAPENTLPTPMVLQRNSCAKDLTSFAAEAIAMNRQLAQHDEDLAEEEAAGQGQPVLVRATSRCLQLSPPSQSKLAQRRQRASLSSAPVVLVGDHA
Structure (SMILES),pIC50 [1],pIC50 [2],pIC50 [3]
"Nc1cc(Nc2c(=O)n3c(c4ccccc24)C(=O)NC32CCCCC2)ncn1 [Compound III, 6′-((6-Aminopyrimidin-4-yl)amino)-2′H-spiro[cyclohexane-1,3′-imidazo[5,1-a]isoquinoline]-1′,5′-dione]",< 6.00,< 6.00,–
"O=C1NC2(CCCCC2)c2cc(Nc3cc(Nc4ccccn4)ncn3)sc21 [Compound XXIII-C, 2′-((6-(Pyridin-2-ylamino)pyrimidin-4-yl)amino)spiro[cyclohexane-1,4′-thieno[2,3-c]pyrrol]-6′(5′H)-one]",–,8.00 to 10.00,7.00 to 8.00
"O=C1NC2(CCCCC2)c2cc(Nc3cc(N[C@H]4CCOC4)ncn3)sc21 [Compound XXIV-C, (S)-2′-((6-((tetrahydrofuran-3-yl)amino)pyrimidin-4-yl)amino)spiro[cyclohexane-1,4′-thieno[2,3-c]pyrrol]-6′(5′H)-one]",–,8.00 to 10.00,7.00 to 8.00
"O=C1NC2(CCCCC2)c2cc(Nc3ncnc4[nH]ccc34)sc21 [Compound XVII-A, 2′-((7H-pyrrolo[2,3-d]pyrimidin-4-yl)amino)spiro[cyclohexane-1,4′-thieno[2,3-c]pyrrol]-6′(5′H)-one]",–,8.00 to 10.00,7.00 to 8.00
"Cc1cc(Nc2cc(N)ncn2)c(=O)n2c1C(=O)N[C@@]21C[C@H]2CC[C@@H]1C2 [Compound IIb, (1R,2S,4S)-6′-((6-aminopyrimidin-4-yl)amino)-8′-methyl-2′H-spiro[bicyclo[2.2.1]heptane-2,3′-imidazo[1,5-a]pyridine]-1′,5′-dione]",8.00 to 10.00,8.00 to 10.00,–
"Nc1cc(Nc2c3c(c4n(c2=O)C2(CCCCC2)NC4=O)CCC3)ncn1 [Compound I, 6′-((6-Aminopyrimidin-4-yl)amino)-8′,9′-dihydrospiro[cyclohexane-1,3′-cyclopenta[c]imidazo[1,5-a]pyridine]-1′,5′(2′H,7′H)-dione]",< 6.00,< 6.00,–
"Cc1cc(Nc2cc(Nc3ccn(C(C)C)n3)ncn2)[n+]([O-])c2c1C(=O)NC21CCCCC1 [Compound XXIX-AAQ, 2′-((6-((1-isopropyl-1H-pyrazol-3-yl)amino)pyrimidin-4-yl)amino)-4′-methyl-5′-oxo-5′,6′-dihydrospiro[cyclohexane-1,7′-pyrrolo[3,4-b]pyridine] 1′-oxide]",–,8.00 to 10.00,8.00 to 10.00
"O=C1NC2(CCCCC2)c2cc(Nc3cc(NC(=O)C4CCCC4)ncn3)sc21 [Compound XX-D, N-(6-((6′-Oxo-5′,6′-dihydrospiro[cyclohexane-1,4′-thieno[2,3-c]pyrrol]-2′-yl)amino)pyrimidin-4-yl)cyclopentanecarboxamide]",–,8.00 to 10.00,6.00 to 7.00
"Cc1ccnc(Nc2cc(Nc3cc(C)c4c([n+]3[O-])C3(CCCCC3)NC4=O)ncn2)c1 [Compound XXIX-AAI, 4′-methyl-2′-((6-((4-methylpyridin-2-yl)amino)pyrimidin-4-yl)amino)-5′-oxo-5′,6′-dihydrospiro[cyclohexane-1,7′-pyrrolo[3,4-b]pyridine] 1′-oxide]",–,8.00 to 10.00,8.00 to 10.00
"Cn1cnc(Nc2cc(Nc3cc4c(s3)C(=O)NC43CCCCC3)ncn2)c1 [Compound XXXI-B, 2′-((6-((1-methyl-1H-imidazol-4-yl)amino)pyrimidin-4-yl)amino)spiro[cyclohexane-1,4′-thieno[2,3-c]pyrrol]-6′(5′H)-one]",–,7.00 to 8.00,6.00 to 7.00

# Results, then the molecule that gave them:
pIC50 [1],pIC50 [2],pIC50 [3],Structure (SMILES)
8.00 to 10.00,8.00 to 10.00,–,"Cc1cc(Nc2cc(N)ncn2)c(=O)n2c1C(=O)N[C@]21C[C@H]2CC[C@@H]1C2 [Compound IIa, (1R,2R,4S)-6′-((6-Aminopyrimidin-4-yl)amino)-8′-methyl-2′H-spiro[bicyclo[2.2.1]heptane-2,3′-imidazo[1,5-a]pyridine]-1′,5′-dione]"
–,8.00 to 10.00,8.00 to 10.00,"Cc1cc(Nc2cc(Nc3ccc(N4CCN(CCO)CC4)cn3)ncn2)[n+]([O-])c2c1C(=O)NC21CCCCC1 [Compound XXIX-AAP, 2′-((6-((5-(4-(2-hydroxyethyl)piperazin-1-yl)pyridin-2-yl)amino)pyrimidin-4-yl)amino)-4′-methyl-5′-oxo-5′,6′-dihydrospiro[cyclohexane-1,7′-pyrrolo[3,4-b]pyridine]1′-oxide formate salt]"
–,8.00 to 10.00,6.00 to 7.00,"O=C1NC2(CCCCC2)c2cc(Nc3cc(NCCO)ncn3)sc21 [Compound XXIII-J, 2′-((6-((2-Hydroxyethyl)amino)pyrimidin-4-yl)amino)spiro[cyclohexane-1,4′-thieno[2,3-c]pyrrol]-6′(5′H)-one]"
–,8.00 to 10.00,8.00 to 10.00,"Cn1ccc(Nc2cc(Nc3nc4c(s3)C(=O)NC43CCCCC3)ncn2)n1 [Compound XXVIII-M, 2′-((6-((1-methyl-1H-pyrazol-3-yl)amino)pyrimidin-4-yl)amino)spiro[cyclohexane-1,4′-pyrrolo[3,4-d]thiazol]-6′(5′H)-one]"
–,8.00 to 10.00,7.00 to 8.00,"Cc1cc(Nc2cc(N)ncn2)[n+]([O-])c2c1C(=O)NC21CCCCC1 [Compound XXIX, 2′-((6-Aminopyrimidin-4-yl)amino)-4′-methyl-5′-oxo-5′,6′-dihydrospiro [cyclohexane-1,7′-pyrrolo[3,4-b]pyridine] 1′-oxide]"
–,8.00 to 10.00,8.00 to 10.00,"Cc1cc(Nc2cc(Nc3cccc(CO)n3)ncn2)[n+]([O-])c2c1C(=O)NC21CCCCC1 [Compound XXIX-AU, 2′-((6-((6-(hydroxymethyl)pyridin-2-yl)amino)pyrimidin-4-yl)amino)-4′-methyl-5′-oxo-5′,6′-dihydrospiro[cyclohexane-1,7′-pyrrolo[3,4-b]pyridine] 1′-oxide formate salt]"
–,8.00 to 10.00,8.00 to 10.00,"Cc1cc(Nc2cc(Nc3ccccc3)ncn2)[n+]([O-])c2c1C(=O)NC21CCCCC1 [Compound XXIX-AH, 4′-methyl-5′-oxo-2′-((6-(phenylamino)pyrimidin-4-yl)amino)-5′,6′-dihydrospiro[cyclohexane-1,7′-pyrrolo[3,4-b]pyridine] 1′-oxide]"
–,8.00 to 10.00,7.00 to 8.00,"O=C1NC2(CCCCC2)c2c1sc(Nc1cc(N[C@H]3CCOC3)ncn1)c2Cl [Compound XXI-A, (S)-3′-chloro-2′-((6-((tetrahydrofuran-3-yl)amino)pyrimidin-4-yl)amino)spiro[cyclohexane-1,4′-thieno[2,3-c]pyrrol]-6′(5′H)-one]"
